{"source": "ChEMBL document CHEMBL4665919", "about": "“Novel Tricyclic Pyroglutamide Derivatives as Potent RORγt Inverse Agonists Identified using a Virtual Screening Approach” (ACS Med Chem Lett, 2020)", "key": {"[1]": {"target": "T1, Nuclear receptor subfamily 1 group I member 2 (Homo sapiens, UniProt O75469)", "T1 sequence (O75469 whole entry)": "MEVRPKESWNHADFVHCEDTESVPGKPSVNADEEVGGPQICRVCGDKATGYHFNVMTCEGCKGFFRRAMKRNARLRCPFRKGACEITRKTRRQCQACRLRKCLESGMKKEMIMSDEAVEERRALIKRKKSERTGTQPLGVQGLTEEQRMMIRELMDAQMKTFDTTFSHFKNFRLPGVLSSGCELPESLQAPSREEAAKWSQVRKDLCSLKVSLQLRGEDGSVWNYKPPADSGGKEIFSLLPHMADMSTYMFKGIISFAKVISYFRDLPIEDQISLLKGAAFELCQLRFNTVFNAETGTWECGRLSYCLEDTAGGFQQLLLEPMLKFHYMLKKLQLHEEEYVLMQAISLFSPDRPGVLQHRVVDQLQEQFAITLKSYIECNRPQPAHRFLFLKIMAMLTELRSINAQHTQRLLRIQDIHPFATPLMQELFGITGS", "experiment": "Inverse agonist activity at PXR (unknown origin)"}, "[2]": {"experiment": "Clearance in BALB/c mouse at 2 mg/kg, iv", "format": "ADME, organism-based", "conditions": "in vivo"}, "[3]": {"experiment": "Drug concentration in BALB/c mouse at 4 mg/kg, po measured upto 24 hrs", "format": "ADME, organism-based", "conditions": "in vivo, read-out: Drug uptake"}, "[4]": {"experiment": "Permeability across basolateral to apical side in human Caco2 cells", "format": "ADME, cell-based", "conditions": "Caco-2, read-out: permeability"}, "[5]": {"experiment": "Permeability across apical to basolateral side in human Caco2 cells", "format": "ADME, cell-based", "conditions": "Caco-2, read-out: permeability"}, "[6]": {"experiment": "AUC in BALB/c mouse at 4 mg/kg, po measured upto 72 hrs", "format": "ADME, organism-based", "set-up": "route oral, dose 4 mg/kg, time <=72", "conditions": "in vivo"}, "Cytochrome P450 3A4": {"target": "Cytochrome P450 3A4 (Homo sapiens, UniProt P08684)", "sequence (P08684 whole entry)": "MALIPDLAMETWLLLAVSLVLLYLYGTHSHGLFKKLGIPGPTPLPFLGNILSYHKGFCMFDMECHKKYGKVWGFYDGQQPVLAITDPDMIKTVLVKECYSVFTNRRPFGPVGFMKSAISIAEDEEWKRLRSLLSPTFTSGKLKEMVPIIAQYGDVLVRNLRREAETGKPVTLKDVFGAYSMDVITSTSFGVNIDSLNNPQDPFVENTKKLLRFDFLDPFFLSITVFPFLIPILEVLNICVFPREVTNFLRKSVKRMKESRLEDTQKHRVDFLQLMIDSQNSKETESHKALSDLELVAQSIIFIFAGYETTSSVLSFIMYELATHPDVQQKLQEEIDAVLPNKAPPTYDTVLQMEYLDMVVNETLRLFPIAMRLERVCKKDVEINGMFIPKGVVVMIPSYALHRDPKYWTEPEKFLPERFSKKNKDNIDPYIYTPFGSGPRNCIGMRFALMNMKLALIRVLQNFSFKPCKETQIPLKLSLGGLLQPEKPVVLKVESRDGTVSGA", "experiment": "Inhibition of CYP3A4 (unknown origin)", "format": "ADME"}, "[7]": {"experiment": "Kinetic solubility of compound in acetate buffer at pH 4", "format": "physicochemical", "conditions": "read-out: Kinetic_solubility"}, "Cytochrome P450 2C9": {"target": "Cytochrome P450 2C9 (Homo sapiens, UniProt P11712)", "sequence (P11712 whole entry)": "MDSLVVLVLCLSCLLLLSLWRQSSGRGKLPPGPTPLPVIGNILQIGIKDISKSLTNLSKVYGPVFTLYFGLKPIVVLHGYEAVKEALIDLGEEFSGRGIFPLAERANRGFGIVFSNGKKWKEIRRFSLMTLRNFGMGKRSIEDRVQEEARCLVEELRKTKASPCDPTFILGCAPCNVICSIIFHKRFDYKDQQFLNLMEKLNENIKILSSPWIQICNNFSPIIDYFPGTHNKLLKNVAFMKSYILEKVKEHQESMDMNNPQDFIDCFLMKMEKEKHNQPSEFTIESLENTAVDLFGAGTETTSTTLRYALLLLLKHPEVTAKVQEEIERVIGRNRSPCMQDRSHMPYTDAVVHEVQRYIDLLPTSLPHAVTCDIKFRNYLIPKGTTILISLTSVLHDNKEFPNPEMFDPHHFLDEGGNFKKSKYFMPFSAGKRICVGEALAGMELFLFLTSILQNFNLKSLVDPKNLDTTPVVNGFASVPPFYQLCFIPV", "experiment": "Inhibition of CYP2C9 (unknown origin)", "format": "ADME"}, "[8]": {"target": "T2, Oxysterols receptor LXR-beta (Homo sapiens, UniProt P55055)", "T2 sequence (P55055 whole entry)": "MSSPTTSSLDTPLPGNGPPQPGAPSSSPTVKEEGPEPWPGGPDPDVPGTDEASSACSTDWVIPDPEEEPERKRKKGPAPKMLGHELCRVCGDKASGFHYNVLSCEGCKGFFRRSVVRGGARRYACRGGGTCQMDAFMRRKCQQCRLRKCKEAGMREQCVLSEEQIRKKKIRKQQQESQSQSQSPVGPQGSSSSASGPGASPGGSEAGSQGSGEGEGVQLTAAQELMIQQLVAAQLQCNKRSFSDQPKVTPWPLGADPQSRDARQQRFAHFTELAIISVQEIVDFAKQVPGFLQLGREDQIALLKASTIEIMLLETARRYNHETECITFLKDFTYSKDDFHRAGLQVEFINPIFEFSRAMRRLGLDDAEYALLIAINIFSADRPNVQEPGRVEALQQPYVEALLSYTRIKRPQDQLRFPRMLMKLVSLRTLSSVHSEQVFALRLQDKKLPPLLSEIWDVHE", "experiment": "Inverse agonist activity at LXRbeta (unknown origin)"}, "[9]": {"experiment": "Protein binding in mouse", "format": "ADME, organism-based", "conditions": "in vivo"}, "Cytochrome P450 1A2": {"target": "T3, Cytochrome P450 1A2 (Homo sapiens, UniProt P05177)", "T3 sequence (P05177 whole entry)": "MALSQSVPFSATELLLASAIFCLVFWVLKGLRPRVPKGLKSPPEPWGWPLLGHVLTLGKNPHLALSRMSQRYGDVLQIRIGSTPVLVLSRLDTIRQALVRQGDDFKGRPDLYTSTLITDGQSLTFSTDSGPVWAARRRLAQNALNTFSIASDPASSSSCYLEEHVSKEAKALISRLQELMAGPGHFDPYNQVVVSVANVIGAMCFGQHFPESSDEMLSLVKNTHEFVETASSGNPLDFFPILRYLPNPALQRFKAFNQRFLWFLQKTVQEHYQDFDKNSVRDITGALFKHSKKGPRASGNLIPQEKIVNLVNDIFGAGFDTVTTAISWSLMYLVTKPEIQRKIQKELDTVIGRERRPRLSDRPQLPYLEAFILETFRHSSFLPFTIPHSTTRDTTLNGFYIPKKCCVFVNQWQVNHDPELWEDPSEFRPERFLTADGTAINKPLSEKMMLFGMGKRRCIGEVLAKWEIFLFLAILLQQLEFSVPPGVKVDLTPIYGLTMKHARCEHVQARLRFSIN", "experiment": "Inhibition of CYP1A2 (unknown origin)", "format": "ADME"}, "[10]": {"experiment": "Oral bioavailability in BALB/c mouse at 4 mg/kg", "format": "ADME, organism-based", "conditions": "in vivo"}, "[11]": {"target": "T4, Oxysterols receptor LXR-alpha (Homo sapiens, UniProt Q13133)", "T4 sequence (Q13133 whole entry)": "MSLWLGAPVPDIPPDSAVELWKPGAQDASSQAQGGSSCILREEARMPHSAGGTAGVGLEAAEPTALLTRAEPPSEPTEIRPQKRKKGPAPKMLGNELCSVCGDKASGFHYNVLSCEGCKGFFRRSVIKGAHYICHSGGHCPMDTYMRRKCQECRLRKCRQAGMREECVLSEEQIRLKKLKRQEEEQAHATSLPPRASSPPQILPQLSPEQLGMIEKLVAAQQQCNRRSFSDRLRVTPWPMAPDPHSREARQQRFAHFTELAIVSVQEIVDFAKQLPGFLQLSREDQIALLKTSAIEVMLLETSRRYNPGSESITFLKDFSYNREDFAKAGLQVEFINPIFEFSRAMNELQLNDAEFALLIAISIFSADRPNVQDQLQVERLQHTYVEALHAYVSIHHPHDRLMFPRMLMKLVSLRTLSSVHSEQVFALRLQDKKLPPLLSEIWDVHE", "experiment": "Inverse agonist activity at LXRalpha (unknown origin)"}, "[12]": {"experiment": "AUC in BALB/c mouse at 4 mg/kg, po", "format": "ADME, organism-based", "set-up": "dose 4 mg/kg", "conditions": "in vivo"}, "[13]": {"experiment": "Half life in BALB/c mouse at 2 mg/kg, iv", "format": "ADME, organism-based", "conditions": "in vivo"}, "[14]": {"experiment": "Cmax in BALB/c mouse at 4 mg/kg, po", "format": "ADME, organism-based", "set-up": "route oral, dose 4 mg/kg", "conditions": "in vivo"}, "[15]": {"experiment": "Half life in mouse liver microsomes", "format": "ADME, Microsome"}, "Cytochrome P450 2C8": {"target": "T5, Cytochrome P450 2C8 (Homo sapiens, UniProt P10632)", "T5 sequence (P10632 whole entry)": "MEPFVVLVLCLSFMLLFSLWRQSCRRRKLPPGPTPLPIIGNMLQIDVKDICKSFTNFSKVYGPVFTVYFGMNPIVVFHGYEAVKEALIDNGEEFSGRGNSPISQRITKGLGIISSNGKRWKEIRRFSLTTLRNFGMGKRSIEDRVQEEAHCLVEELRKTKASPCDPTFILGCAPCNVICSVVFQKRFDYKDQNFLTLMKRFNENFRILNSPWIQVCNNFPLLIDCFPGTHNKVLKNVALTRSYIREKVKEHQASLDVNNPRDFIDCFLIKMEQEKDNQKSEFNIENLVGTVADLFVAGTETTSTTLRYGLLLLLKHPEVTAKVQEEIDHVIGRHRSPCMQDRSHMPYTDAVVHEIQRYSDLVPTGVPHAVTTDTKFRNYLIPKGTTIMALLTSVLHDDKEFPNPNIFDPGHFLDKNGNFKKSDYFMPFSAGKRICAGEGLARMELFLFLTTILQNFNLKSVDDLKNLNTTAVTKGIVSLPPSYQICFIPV", "experiment": "Inhibition of CYP2C8 (unknown origin)", "format": "ADME"}}}
{"smiles": "CC(C)(O)CN1C(=O)[C@H](F)C[C@H]1C(=O)N1CC[C@@]2(S(=O)(=O)c3ccc(F)cc3)c3ccc(C(F)(C(F)(F)F)C(F)(F)F)cc3CC[C@@H]12", "values": [{"measurement": "EC50", "setting": "[1]", "result": "> 50", "unit": "µM"}, {"measurement": "clearance", "setting": "[2]", "result": 2, "unit": "mL/min/kg"}, {"measurement": "concentration at 24 h", "setting": "[3]", "result": 620, "unit": "nM"}, {"measurement": "Papp B→A", "setting": "[4]", "result": 19, "unit": "×10⁻⁶ cm/s"}, {"measurement": "Papp A→B", "setting": "[5]", "result": 9.3, "unit": "×10⁻⁶ cm/s"}, {"measurement": "AUC at 72 h", "setting": "[6]", "result": 43.9, "unit": "µM·h"}, {"measurement": "IC50", "setting": "Cytochrome P450 3A4", "result": "> 20", "unit": "µM"}, {"measurement": "solubility kinetic", "setting": "[7]", "result": "< 1", "unit": "µg/mL"}, {"measurement": "IC50", "setting": "Cytochrome P450 2C9", "result": 4.9, "unit": "µM"}, {"measurement": "EC50", "setting": "[8]", "result": "> 7.5", "unit": "µM"}, {"measurement": "fraction unbound", "setting": "[9]", "result": 1.3, "unit": "%"}, {"measurement": "IC50", "setting": "Cytochrome P450 1A2", "result": "> 20", "unit": "µM"}, {"measurement": "bioavailability", "setting": "[10]", "result": 94, "unit": "%"}, {"measurement": "EC50", "setting": "[11]", "result": "> 7.5", "unit": "µM"}, {"measurement": "AUC", "setting": "[12]", "result": 44.4, "unit": "µM·h"}, {"measurement": "half-life", "setting": "[13]", "result": 15, "unit": "h"}, {"measurement": "Cmax", "setting": "[14]", "result": 2200, "unit": "nM"}, {"measurement": "half-life", "setting": "[15]", "result": "> 2", "unit": "h"}, {"measurement": "IC50", "setting": "Cytochrome P450 2C8", "result": "> 20", "unit": "µM"}]}
